From ChEMBL document CHEMBL1201862, “PubChem BioAssay data set” (2004)
The source made the active and inactive calls.

How the values were obtained:
[1] = Dd2 parasite growth inhibition in erythrocytes – SYBR Green, dry powder samples, set 9, dose response (AID 1159568); type: functional, cell-based
[2] = blockers of HIV-1 envelope-mediated cell-cell fusion – cherry-pick, dose response (AID 652057); type: functional, cell-based
[3] = HIV-1 AD8 envelope cell-cell fusion blockers – cherry-pick, dose response (AID 652062); type: functional, cell-based;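 further: luciferase signal from cell-cell fusion driven by HIV-1 clade B AD8 Env; potency is for inhibitors of fusion seen as a drop in luminescence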
[4] = inhibition of Env-driven cell fusion – HIV entry, plate reader, dry powder, dose response (AID 687023); type: functional, cell-based
[5] = viability loss in CEM21 cells – cell-based, plate reader, dry powder, cytotoxicity control, dose response (AID 687026); type: functional
[6] = tested on: H4; experiment: Luminescence Cell-Based Dose Response HTS to Identify Activators of 5'UTR Stem-Loop Driven Prion Protein mRNA Translation in H4 Neuroglioblastoma Cells. [Related pubchem assays: 1829 (Project Summary), 1814 (Primary HTS)]; type: functional; settings: Homo sapiens
[7] = biological target: T1, Oxysterols receptor LXR-beta (Homo sapiens, UniProt P55055); type: functional, cell-based;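 further: Cell-based luminescence dose-response assay of agonist activity at LXR, run as a confirmatory counterscreen to a daf-12 agonist screen; HEK293 cells with Gal4-LXR fusion and GAL4-driven luciferase reporter; agonist potency from rising luciferase signal of a Gal4-LXR reporter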
T1 sequence (P55055 whole entry): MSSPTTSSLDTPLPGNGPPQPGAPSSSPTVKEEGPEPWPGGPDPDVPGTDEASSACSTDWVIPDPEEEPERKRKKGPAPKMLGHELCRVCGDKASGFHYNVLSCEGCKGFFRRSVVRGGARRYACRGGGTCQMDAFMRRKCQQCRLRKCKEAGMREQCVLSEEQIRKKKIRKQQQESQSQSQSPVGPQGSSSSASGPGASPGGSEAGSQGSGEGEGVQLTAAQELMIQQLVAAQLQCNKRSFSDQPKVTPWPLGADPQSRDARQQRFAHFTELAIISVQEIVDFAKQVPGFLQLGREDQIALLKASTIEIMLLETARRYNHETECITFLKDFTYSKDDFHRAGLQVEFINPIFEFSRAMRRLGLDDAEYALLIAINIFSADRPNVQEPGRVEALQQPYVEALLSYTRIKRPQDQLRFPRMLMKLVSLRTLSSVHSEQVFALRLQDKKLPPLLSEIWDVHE

[8] = cells
[9] = biological target: Phospholipase D2 (Homo sapiens, UniProt O14939); experiment: PLD2 Cellular Concentration Response Study.; type: functional
[10] = biological target: Phospholipase D1 (Homo sapiens, UniProt Q13393); experiment: PLD1 Cellular Concentration Response Study.; type: functional
Sequence of Phospholipase D1 (Q13393 whole entry): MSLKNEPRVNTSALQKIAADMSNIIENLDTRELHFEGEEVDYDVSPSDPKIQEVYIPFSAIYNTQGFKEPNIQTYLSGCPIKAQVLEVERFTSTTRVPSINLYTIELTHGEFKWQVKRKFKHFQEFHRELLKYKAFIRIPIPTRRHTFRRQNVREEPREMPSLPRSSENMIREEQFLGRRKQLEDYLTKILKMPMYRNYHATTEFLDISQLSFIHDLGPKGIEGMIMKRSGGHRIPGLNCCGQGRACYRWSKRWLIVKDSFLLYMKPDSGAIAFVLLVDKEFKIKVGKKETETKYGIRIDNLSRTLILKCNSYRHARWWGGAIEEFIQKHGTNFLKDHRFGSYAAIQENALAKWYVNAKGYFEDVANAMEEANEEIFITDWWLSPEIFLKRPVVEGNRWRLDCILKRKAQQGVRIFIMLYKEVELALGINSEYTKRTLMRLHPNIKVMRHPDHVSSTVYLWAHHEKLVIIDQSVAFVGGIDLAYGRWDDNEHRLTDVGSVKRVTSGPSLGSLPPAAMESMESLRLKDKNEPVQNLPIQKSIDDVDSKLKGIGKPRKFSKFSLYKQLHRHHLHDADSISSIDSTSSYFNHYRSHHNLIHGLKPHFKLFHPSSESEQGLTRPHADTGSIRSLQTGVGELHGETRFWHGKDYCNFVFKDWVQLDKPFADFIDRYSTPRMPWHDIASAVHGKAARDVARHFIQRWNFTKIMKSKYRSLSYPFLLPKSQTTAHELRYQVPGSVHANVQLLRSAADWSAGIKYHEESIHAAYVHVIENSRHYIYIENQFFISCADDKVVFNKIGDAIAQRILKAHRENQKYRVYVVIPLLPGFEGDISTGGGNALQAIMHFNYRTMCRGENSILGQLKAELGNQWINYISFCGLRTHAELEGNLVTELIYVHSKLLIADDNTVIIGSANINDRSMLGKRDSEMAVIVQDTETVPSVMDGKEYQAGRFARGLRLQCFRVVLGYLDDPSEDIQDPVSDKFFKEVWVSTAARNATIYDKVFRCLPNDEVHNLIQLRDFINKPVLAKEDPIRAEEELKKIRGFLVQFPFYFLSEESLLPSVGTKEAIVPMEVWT

[11] = biological target: Mitogen-activated protein kinase 10 (Homo sapiens, UniProt P53779); experiment: Dose response biochemical screening assay for inhibitors of c-Jun N-Terminal Kinase 3 (JNK3). [Related pubchem assays: 746 ]
Sequence of Mitogen-activated protein kinase 10 (P53779 whole entry): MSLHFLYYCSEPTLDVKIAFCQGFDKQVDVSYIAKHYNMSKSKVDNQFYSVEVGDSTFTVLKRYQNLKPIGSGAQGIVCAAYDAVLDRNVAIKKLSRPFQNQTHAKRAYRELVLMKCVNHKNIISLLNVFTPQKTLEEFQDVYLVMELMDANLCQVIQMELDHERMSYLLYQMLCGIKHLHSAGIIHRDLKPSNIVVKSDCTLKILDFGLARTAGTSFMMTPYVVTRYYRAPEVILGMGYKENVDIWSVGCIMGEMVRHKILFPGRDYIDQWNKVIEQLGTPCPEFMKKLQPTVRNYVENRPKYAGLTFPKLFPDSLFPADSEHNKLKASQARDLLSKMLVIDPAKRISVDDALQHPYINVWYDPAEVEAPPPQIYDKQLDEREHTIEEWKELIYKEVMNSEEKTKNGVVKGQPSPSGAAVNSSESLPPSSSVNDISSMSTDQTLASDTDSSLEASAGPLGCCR

[12] = biological target: DNA dC->dU-editing enzyme APOBEC-3A (Homo sapiens, UniProt P31941); experiment: Dose Response confirmation of small molecule APOBEC3A DNA Deaminase Inhibitors via a fluorescence-based single-stranded DNA deaminase assay. [Related pubchem assays (depositor defined):AID493011, AID493024]; type: functional
Sequence of DNA dC->dU-editing enzyme APOBEC-3A (P31941 whole entry): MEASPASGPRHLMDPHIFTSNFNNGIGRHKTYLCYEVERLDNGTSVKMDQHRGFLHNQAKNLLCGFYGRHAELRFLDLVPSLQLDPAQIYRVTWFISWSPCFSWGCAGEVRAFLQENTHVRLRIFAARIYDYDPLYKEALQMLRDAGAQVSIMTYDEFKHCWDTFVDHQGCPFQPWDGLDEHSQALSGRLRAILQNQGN

[13] = biological target: DNA dC->dU-editing enzyme APOBEC-3G (Homo sapiens, UniProt Q9HC16); type: functional;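 further: Dose-response counterscreen measuring inhibition of APOBEC3G DNA deaminase activity, run while confirming APOBEC3A inhibitors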
[14] = biological target: NAD-dependent protein deacylase sirtuin-5, mitochondrial (Homo sapiens, UniProt Q9NXA8); experiment: sirtuin-5 deacylation blockers, concentration series – biochemical, fluorescence imaging, cherry-pick, set 5, dose response (AID 720591);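 further: desuccinylation of succinyl peptide AMC substrate read as fluorescence after trypsin release; potency of inhibitors that lower fluorescence and may act on trypsin instead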
Sequence of NAD-dependent protein deacylase sirtuin-5, mitochondrial (Q9NXA8 whole entry): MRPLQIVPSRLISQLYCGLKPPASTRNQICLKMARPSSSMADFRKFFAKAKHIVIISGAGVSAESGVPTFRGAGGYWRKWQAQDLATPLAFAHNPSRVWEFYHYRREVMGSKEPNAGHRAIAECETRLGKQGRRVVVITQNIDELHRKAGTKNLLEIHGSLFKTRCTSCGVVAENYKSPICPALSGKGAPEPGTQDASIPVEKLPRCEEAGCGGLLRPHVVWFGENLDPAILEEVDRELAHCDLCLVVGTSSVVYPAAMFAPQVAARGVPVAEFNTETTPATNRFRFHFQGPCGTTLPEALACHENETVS

[15] = biological target: Peroxisome proliferator-activated receptor gamma/Nuclear receptor coactivator 1 (Homo sapiens, UniProt P37231); experiment: (§1) TR-FRET dose response biochemical High Throughput Screening assay for agonists of the steroid receptor coactivator 1 (SRC-1) recruitment by the peroxisome proliferator-activated receptor gamma (PPAR gamma): non-selective agonists. [Related pubchem assays (depositor defined):AID1300, AID1808, AID504735, AID631]; type: protein assay
[16] = biological target: Peroxisome proliferator-activated receptor gamma/Nuclear receptor coactivator 3 (Homo sapiens, UniProt P37231); experiment: as §1, with “3 (SRC-3)” for “1 (SRC-1)”, “assays: 1301 (Confirmation screen.), 1048 (Primary screen.)]” for “assays (depositor defined):AID1300, AID1808, AID504735, AID631]”; type: functional
Sequence of Peroxisome proliferator-activated receptor gamma/Nuclear receptor coactivator 3 (P37231 whole entry): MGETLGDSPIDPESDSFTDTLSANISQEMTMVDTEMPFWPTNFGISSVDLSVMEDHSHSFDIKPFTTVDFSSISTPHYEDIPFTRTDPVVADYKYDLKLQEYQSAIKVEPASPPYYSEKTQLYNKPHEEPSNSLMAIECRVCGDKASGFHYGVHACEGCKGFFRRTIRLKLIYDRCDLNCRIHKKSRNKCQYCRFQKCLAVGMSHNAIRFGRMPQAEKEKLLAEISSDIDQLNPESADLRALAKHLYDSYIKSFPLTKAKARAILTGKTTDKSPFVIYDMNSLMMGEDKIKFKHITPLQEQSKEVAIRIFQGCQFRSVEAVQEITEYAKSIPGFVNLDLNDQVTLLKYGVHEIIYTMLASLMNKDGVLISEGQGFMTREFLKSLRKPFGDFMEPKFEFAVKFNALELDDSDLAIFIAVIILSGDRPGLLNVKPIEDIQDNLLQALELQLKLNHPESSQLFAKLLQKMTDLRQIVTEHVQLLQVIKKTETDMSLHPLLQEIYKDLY
Sequence of Peroxisome proliferator-activated receptor gamma/Nuclear receptor coactivator 3 (Q9Y6Q9 whole entry, further chain): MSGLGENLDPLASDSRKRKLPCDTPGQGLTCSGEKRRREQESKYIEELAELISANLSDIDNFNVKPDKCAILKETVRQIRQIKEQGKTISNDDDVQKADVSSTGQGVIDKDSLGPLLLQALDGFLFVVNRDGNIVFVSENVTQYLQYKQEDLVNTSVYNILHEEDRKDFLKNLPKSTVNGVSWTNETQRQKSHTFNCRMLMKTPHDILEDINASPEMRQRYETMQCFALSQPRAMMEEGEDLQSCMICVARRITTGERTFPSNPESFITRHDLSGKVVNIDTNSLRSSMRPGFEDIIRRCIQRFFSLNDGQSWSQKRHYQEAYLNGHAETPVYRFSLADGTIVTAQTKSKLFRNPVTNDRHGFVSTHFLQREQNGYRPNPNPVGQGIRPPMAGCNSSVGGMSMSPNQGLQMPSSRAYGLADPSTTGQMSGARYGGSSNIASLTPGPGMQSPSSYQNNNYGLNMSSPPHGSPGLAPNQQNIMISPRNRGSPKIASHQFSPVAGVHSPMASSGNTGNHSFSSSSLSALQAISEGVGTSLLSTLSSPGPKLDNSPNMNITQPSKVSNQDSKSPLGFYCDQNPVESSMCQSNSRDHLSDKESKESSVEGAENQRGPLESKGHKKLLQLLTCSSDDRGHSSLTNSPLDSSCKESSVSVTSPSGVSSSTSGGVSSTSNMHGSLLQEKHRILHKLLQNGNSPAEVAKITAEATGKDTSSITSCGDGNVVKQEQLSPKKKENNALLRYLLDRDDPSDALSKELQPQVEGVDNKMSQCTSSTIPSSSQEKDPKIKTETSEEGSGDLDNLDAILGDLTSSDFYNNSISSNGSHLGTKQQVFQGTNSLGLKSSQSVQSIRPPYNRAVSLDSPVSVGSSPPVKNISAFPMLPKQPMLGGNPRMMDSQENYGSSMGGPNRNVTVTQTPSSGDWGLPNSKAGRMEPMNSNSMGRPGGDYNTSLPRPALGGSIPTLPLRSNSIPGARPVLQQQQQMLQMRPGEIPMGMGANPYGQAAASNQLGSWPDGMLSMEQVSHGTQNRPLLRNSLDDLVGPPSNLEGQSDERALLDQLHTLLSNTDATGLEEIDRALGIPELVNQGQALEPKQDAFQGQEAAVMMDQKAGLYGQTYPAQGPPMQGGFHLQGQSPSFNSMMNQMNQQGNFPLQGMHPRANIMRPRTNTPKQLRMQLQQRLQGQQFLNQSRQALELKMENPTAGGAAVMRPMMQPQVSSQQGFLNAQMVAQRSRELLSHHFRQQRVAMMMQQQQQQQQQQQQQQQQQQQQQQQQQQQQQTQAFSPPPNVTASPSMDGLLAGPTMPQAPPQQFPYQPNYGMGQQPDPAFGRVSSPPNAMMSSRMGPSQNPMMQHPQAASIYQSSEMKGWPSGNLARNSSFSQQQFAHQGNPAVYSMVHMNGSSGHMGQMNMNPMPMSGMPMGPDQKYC

[17] = biological target: Peroxisome proliferator-activated receptor gamma/Nuclear receptor coactivator 2 (Homo sapiens, UniProt P37231); experiment: TR-FRET dose response biochemical High Throughput Screening assay for agonists of the steroid receptor coactivator 2 (SRC-2) recruitment by the peroxisome proliferator-activated receptor gamma (PPAR gamma): non-selective agonists. [Related pubchem assays: 1297, 1032 ]; type: functional
[18] = biological target: Nonstructural protein 1 (Influenza A virus, UniProt Q194T2); type: functional, Influenza A virus (A/California/07/2009(H1N1))
Sequence of Nonstructural protein 1 (Q194T2 whole entry): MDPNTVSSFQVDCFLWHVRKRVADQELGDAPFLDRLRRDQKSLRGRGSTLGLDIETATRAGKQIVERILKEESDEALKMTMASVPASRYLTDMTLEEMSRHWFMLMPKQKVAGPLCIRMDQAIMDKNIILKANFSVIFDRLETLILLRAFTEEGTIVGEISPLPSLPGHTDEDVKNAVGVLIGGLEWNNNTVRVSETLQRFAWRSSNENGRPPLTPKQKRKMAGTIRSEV

[19] = biological target: T2, Heat shock factor protein 1 (Mus musculus, UniProt P38532); experiment: enhancement of HSF1-driven luciferase signal – cell-based, NIH3T3, luminescence, dose retest, confirmation (AID 435004); type: functional;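 further: stress induced by proteasome inhibitor MG132 added 30 min after compound; luciferase reporter driven by HSF1 response element in NIH3T3 cells; actives raise luminescence as potentiators of the MG132 stress response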
T2 sequence (P38532 whole entry): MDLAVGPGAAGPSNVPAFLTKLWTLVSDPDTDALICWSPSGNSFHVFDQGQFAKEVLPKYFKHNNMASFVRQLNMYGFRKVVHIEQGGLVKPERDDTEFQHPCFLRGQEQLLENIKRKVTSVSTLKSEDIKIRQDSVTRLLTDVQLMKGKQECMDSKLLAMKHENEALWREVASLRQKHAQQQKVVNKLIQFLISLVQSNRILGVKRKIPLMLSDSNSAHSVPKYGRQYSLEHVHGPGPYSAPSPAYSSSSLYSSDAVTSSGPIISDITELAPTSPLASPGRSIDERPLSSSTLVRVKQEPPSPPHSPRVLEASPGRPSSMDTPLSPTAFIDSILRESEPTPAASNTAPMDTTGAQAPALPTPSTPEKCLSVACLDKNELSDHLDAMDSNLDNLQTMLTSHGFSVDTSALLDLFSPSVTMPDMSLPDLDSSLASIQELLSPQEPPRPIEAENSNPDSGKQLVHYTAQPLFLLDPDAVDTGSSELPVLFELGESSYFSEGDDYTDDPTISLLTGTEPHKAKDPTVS

[20] = biological target: SWI/SNF-related matrix-associated actin-dependent regulator of chromatin subfamily A member 2 (Homo sapiens, UniProt P51531); experiment: Luminescence-based cell-based high throughput dose response assay to identify activators of the function of SWI/SNF related, matrix associated, actin dependent regulator of chromatin, subfamily a, member 2 (SMARCA2, BRM).; type: functional
[21] = Counterscreen for activators of the function of SWI/SNF related, matrix associated, actin dependent regulator of chromatin, subfamily a, member 2 (SMARCA2, BRM): Luminescence-based cell-based high throughput dose response assay to identify non-selective compounds using the VP16 reporter assay.; type: functional
[22] = biological target: T3, Fibrinogen beta chain (Homo sapiens, UniProt P02675); experiment: Fluorescence polarization-based biochemical high throughput dose response assay to identify inhibitors that disrupt the binding of a cyclic peptide (Tn6) to the fibrin proteolytic product D-Dimer and fragment E complex [DD(E )].
T3 sequence (P02675 whole entry, the tested form may be a part): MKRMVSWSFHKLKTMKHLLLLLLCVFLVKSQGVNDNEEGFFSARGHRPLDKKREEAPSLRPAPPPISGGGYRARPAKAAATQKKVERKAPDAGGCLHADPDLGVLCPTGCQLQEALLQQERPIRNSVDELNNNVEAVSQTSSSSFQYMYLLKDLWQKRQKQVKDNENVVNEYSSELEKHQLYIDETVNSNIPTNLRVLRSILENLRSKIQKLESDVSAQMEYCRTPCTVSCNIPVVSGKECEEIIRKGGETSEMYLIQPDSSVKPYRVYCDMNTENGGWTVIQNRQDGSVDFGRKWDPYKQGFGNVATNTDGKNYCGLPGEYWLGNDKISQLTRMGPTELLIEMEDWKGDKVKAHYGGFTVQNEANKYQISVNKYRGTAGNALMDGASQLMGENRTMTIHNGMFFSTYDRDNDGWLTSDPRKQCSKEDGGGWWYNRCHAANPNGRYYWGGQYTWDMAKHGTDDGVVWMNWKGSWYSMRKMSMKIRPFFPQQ

[23] = biological target: T3, Fibrinogen beta chain; experiment: Fluorescence polarization-based biochemical high throughput dose response assay to identify inhibitors that disrupt the binding of a cyclic peptide (Tn7) to the fibrin proteolytic product D-Dimer and fragment E complex [DD(E )].

Q: With C[C@H](CO)N1C[C@H](C)[C@@H](CN(C)S(=O)(=O)c2ccc(F)cc2)OCCCC[C@H](C)Oc2ccc(N(C)C)cc2C1=O as the compound, how does the AC50 [1] read?
A: 5.9 µM (active)

Q: For C[C@@H]1CN([C@H](C)CO)C(=O)c2cccc(NC(=O)C3CCCCC3)c2O[C@H]1CN(C)Cc1ccccc1, which AC50 [2] is on record?
A: 12.1 µM (active)

Q: What about the AC50 [3] of the same compound?
A: 3.35 µM (active)

Q: What about the AC50 [4] of the same compound?
A: 8.1 µM (active)

Q: What about the AC50 [5] of the same compound?
A: 31 µM (active)

Q: For C/C(=N\Nc1nc2c(s1)CCCC2)c1ccccc1, which EC50 [6] is on record?
A: 5.13 µM (active)

Q: And the EC50 [7]?
A: > 67.5 µM (inactive)

Q: What about the EC50 [8] of the same compound?
A: > 67.5 µM (inactive)

Q: Which IC50 [9] does the source give for O=C(NCCN1CCC2(CC1)C(=O)NCN2C(=O)c1cccc(F)c1)c1ccc2ccccc2c1 here?
A: 2.75 µM (active)

Q: And the IC50 [10]?
A: 8.76 µM (active)

Q: For CC1(C)Oc2ccc3ccc(=O)oc3c2-c2c[nH]nc21, which IC50 [11] is on record?
A: > 31 µM (not active)

Q: What about the IC50 [12] of the same compound?
A: 4.45 µM (active)

Q: And the IC50 [13]?
A: 5.7 µM (active)

Q: With Cc1cccc(Cn2c(N(C)CCO)nc3c2c(=O)[nH]c(=O)n3C)c1 as the compound, how does the AC50 [14] read?
A: > 30 µM (inactive)

Q: Which EC50 [15] does the source give for COc1ccc(N)c2c1C(=O)c1ccccc1C2=O here?
A: 20.2 µM (inactive)

Q: And the EC50 [16]?
A: 119 µM (not active)

Q: And the EC50 [17]?
A: 10.7 µM (not active)

Q: What about the IC50 [18] of the same compound?
A: 31 µM (active)

Q: What about the EC50 [19] of the same compound?
A: > 260 µM (inactive)

Q: And the EC50 [20]?
A: > 91.1 µM (inactive)

Q: And the EC50 [21]?
A: > 91.1 µM (inactive)

Q: And the IC50 [22]?
A: 4.98 µM (active)

Q: What about the IC50 [23] of the same compound?
A: > 83.2 µM (inactive)
